Columns and labels:
[1] = Lactose compatibility: stability of cytisine and cytisine salts with lactose on storage, cytisine by HPLC; assay type: physicochemical; conditions: 25° C./60% RH and 40° C./75% RH, 7 and 14 days
Description: The stability of formulations of cytisine and the present cytisine salts with lactose was investigated. Samples were stored at 25° C. and 60% relative humidity (RH) and at 40° C. and 75% RH and evaluated after 7 and 14 days. […] Thus, these salts effectively improve the stability of cytisine and facilitates its formulation with compositions comprising lactose.

[2] = Screening of cytisine salt formation with acid salt formers; assay type: physicochemical; conditions: equimolar acid, 40° C. one hour, cooled to ambient
Description: Stock solutions of acid salt formers were prepared in the carrier solvents and having the molarities detailed in the following Table 1 below:
Stock solutions of cytisine API (non-synthetic) were also prepared in CH3CN and in Me-THF. 2.4 g of cytisine was dissolved in 60 ml of 2-Me-THF heated to a temperature of 60° C. 2.4 g of cytisine was dissolved in 24 ml of CH3CN heated to a temperature of 40° C.
200 ml capacity tubes heated to 40° C. were charged with 2 ml or 5 ml of the cytisine stock solution. The acid stock solutions were then added to the heated tubes in equimolar amounts. The solutions were held at 40° C. for one hour and then allowed to cool to ambient temperature (˜18° C.) for 18 hours.
Filtration of the obtained solids was then carried out using a PTFE fritted column and the obtained solids were dried at 50° C. for 48 hours. The properties of the obtained products were then analysed, and the outcome of this screen and the properties of the obtained products are summarised in Table 2 below: […]

| Molecule | Degradation rate of cytisine compared with free base form [1] | Assessment (salt preparation) ([2]; API stock solution in 2-MeTHF) | Assessment (salt preparation) ([2]; API stock solution in CH3CN) |
| --- | --- | --- | --- |
| CS(=O)(=O)O.O=c1cccc2n1C[C@@H]1CNC[C@H]2C1 [Mesylate, Cytisine Mesylate] | degraded at a substantially lower rate | Excellent salt profile | Excellent salt profile |
| CC(=O)O [Acetate] |  | Secondary precipitations, unstable salt | Secondary precipitations, unstable salt |
| O=C(O)C=CC(=O)O.O=c1cccc2n1CC1CNCC2C1 (stereo not shown) [Maleate, Cytisine Maleate] |  | Excellent salt profile | Excellent salt profile |
| Ascorbate |  | Secondary precipitations, unstable salt | Secondary precipitations, unstable salt |
| O=C(O)c1cc(O)ccc1O.O=c1cccc2n1C[C@@H]1CNC[C@H]2C1 [Gentisate, Cytisine Gentisate] | degraded at a substantially lower rate | Excellent salt profile | Excellent salt profile |
| Benzoate |  | Failed to yield solid | Failed to yield solid |
| Glucuronate |  | Failed to yield solid | Failed to yield solid |

Reference: US12612406B2, “Cytisine salts” (Achieve Pharma UK Limited, priority 2017, dated 2026)
